Results as given in patent US7030138B2, “Benzamidine derivatives” (Sankyo Company, Limited, priority 2001, dated 2006).
Counter-ions that a name gives are not always drawn.

target: T1, human factor-Xa (Homo sapiens, UniProt P00742); experiment: Determination of anti-factor Xa activity (S-2222 coloring substrate, absorbance at 405 nm); format: biochemical; conditions: human factor-Xa 0.25 unit/ml, S-2222 0.4 mM, Tris buffer pH 8.4, room temperature, 5 minutes; read-out: Inhibitory Action against Factor Xa Activity (IC50 (nM))
T1 construct: purchased Cosmobio Co., Ltd
T1 sequence (P00742 235-488 limits assumed): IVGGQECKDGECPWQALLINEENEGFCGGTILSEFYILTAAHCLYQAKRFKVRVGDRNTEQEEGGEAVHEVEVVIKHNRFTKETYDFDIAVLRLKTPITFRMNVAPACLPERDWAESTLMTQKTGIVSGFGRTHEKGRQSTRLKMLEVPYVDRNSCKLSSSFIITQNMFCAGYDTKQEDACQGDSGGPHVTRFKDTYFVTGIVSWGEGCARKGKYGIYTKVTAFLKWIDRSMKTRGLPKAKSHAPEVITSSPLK
T1 sequence (P00742 41-179 partner limits assumed): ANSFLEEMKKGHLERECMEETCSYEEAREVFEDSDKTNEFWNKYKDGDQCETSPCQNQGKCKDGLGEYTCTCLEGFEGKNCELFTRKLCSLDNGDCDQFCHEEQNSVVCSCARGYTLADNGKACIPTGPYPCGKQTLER
Protocol: Determination of Anti-factor Xa Activity
Anti-factor Xa activity was determined according to methods described by Hara et al. [Thrombo. Haemost., 71, 314 (1994)], which were slightly modified. S-2222, a coloring substrate (0.4 mM, Daiichi Pure Chemicals Co., Ltd.) and the test compounds were mixed in Tris hydrochloride buffered solution (50 mM, pH: 8.4) containing NaCl (0.9%). To this solution, human factor-Xa (0.25 unit/ml, Cosmobio Co., Ltd.) was added and the reaction was started. In the control group, distilled water was added to the Tris-buffered solution instead of the test compound. The reaction mixture (in total: 0.1 ml) was incubated at room temperature for 5 minutes. Optical absorbance of the reaction mixture was continuously determined at 405 nm with a 96-well microplate reader (Model 550, Biorad) and increase in the absorbance for 5 minutes was calculated as an indicator of factor Xa activity. To assess anti-factor Xa activities of the test compounds, concentrations of the test compounds to inhibit the factor Xa activity by 50% (IC50) were calculated.

Row | Structure (SMILES) | IC50 [nM]
1 | CCN1CCC(Oc2ccc(N(C/C=C/c3cccc(C(=N)N)c3)S(=O)(=O)CC(=O)O)cc2Cl)CC1 [Example 4, N-[3-(3-Amidinophenyl)-2-(E)-propenyl]-N-[3-chloro-4-(1-ethylpiperidin-4-yloxy)phenyl]sulfamoylacetic acid dihydrochloride] | 10
2 | N=C(N)c1cccc(/C=C/CN(c2ccc(OC3CCN(CCc4ccccn4)CC3)c(Cl)c2)S(=O)(=O)CC(=O)O)c1 [Example 36, N-[3-(3-Amidinophenyl)-2-(E)-propenyl]-N-[3-chloro-4-[1-[2-(2-pyridyl)ethyl]piperidin-4-yloxy]phenyl]sulfamoylacetic acid trihydrochloride] | 13
3 | N=C(N)c1cccc(/C=C/CN(c2ccc(OC3CCN(C4CCCC4)CC3)c(Cl)c2)S(=O)(=O)CC(=O)O)c1 [Example 38, N-[3-(3-Amidinophenyl)-2-(E)-propenyl]-N-[3-chloro-4-(1-cyclopentylpiperidin-4-yloxy)phenyl]sulfamoylacetic acid dihydrochloride] | 12
4 | CCOC(=O)CS(=O)(=O)N(C/C=C/c1cccc(C(=N)N)c1)c1ccc(OC2CCN(C)CC2)c(C(F)(F)F)c1 [Example 45, Ethyl N-[3-(3-amidinophenyl)-2-(E)-propenyl]-N-[4-(1-methylpiperidin-4-yloxy)-3-trifluoromethylphenyl]sulfamoylacetate dihydrochloride] | 7.9
5 | CN1CCC(Oc2ccc(N(C/C=C/c3cccc(C(=N)N)c3)S(=O)(=O)CC(=O)O)cc2C(F)(F)F)CC1 [Example 46, N-[3-(3-Amidinophenyl)-2-(E)-propenyl]-N-[4–1-methylpiperidin-4-yloxy)-3-trifluoromethylphenyl]sulfamoylacetic acid dihydrochloride] | 11
6 | N=C(N)c1cccc(/C=C/CN(c2ccc(OC3CCN(C4=NCCCC4)CC3)c(Cl)c2)S(=O)(=O)CC(=O)O)c1 [Example 56, N-[3-(3-Amidinophenyl)-2-(E)-propenyl]-N-[3-chloro-4-[1-(2,3,4,5-tetrahydropyridin-6-yl)piperidin-4-yloxy]phenyl]sulfamoylacetic acid dihydrochloride] | 10
7 | CCOC(=O)CS(=O)(=O)N(C/C=C/c1cccc(C(=N)N)c1)c1ccc(OC2CCN(C3=NCCCC3)CC2)c(C)c1 [Example 67, Ethyl N-[3-(3-amidinophenyl)-2-(E)-propenyl]-N-[3-methyl-4-[1-(2,3,4,5-tetrahydropyridin-6-yl)piperidin-4-yloxy]phenyl]sulfamoylacetate dihydrochloride] | 15

Now from value to compound:

Row | IC50 [nM] | Structure (SMILES)
8 | 15 | N=C(N)c1cccc(/C=C/CN(c2ccc(OC3CCN(Cc4ccccc4)CC3)c(Cl)c2)S(=O)(=O)CC(=O)O)c1 [Example 10, N-[3-(3-Amidinophenyl)-2-(E)-propenyl]-N-[4-(1-benzylpiperidin-4-yloxy)-3-chlorophenyl]sulfamoylacetic acid dihydrochloride]
9 | 13 | N=C(N)c1cccc(/C=C/CN(c2ccc(OC3CCN(CCc4ccccc4)CC3)c(Cl)c2)S(=O)(=O)CC(=O)O)c1 [Example 12, N-[3-(3-Amidinophenyl)-2-(E)-propenyl]-N-[3-chloro-4-(1-phenethylpiperidin-4-yloxy)phenyl]sulfamoylacetic acid dihydrochloride]
10 | 6.9 | CCOC(=O)CS(=O)(=O)N(C/C=C/c1cccc(C(=N)N)c1)c1ccc(OC2CCN(C(=N)c3ccccc3)CC2)c(Cl)c1 [Example 51, Ethyl N-[3-(3-amidinophenyl)-2-(E)-propenyl]-N-[4-(1-iminophenylmethylpiperidin-4-yloxy)-3-chlorophenyl]sulfamoylacetate dihydrochloride]
11 | 7.8 | N=C(N)c1cccc(/C=C/CN(c2ccc(OC3CCN(C(=N)c4ccccc4)CC3)c(Cl)c2)S(=O)(=O)CC(=O)O)c1 [Example 52, N-[3-(3-Amidinophenyl)-2-(E)-propenyl]-N-[4-(1-iminophenylmethylpiperidin-4-yloxy)-3-chlorophenyl]sulfamoylacetic acid dihydrochloride]
